Legend:
[1] = an = ratio of the nth substance listed, in mol/kg; conditions: 101 kPa, Liquid, Vibrating tube method
[2] = 298.15 K; 101.33 kPa; Liquid

CN(C)C=O [dimethylformamide] + C[N+](C)(C)C.[O-][Cl+3]([O-])([O-])[O-]
[1], a2 = 0
Conditions	mass density [kg/m3]
283.15 K	958.067
293.15 K	948.553
298.15 K	943.79
303.15 K	939.014
313.15 K	929.43
323.15 K	919.797
333.15 K	910.117

CN(C)C=O [dimethylformamide] + CCC[N+](CCC)(CCC)CCC.[O-][Cl+3]([O-])([O-])[O-]
[1], a2 = 0
Conditions	mass density [kg/m3]
283.15 K	958.067
293.15 K	948.553
298.15 K	943.79
303.15 K	939.014
313.15 K	929.43
323.15 K	919.797
333.15 K	910.117

CN(C)C=O [dimethylformamide]
Conditions	mass density [kg/m3]
[2]	943.792

CN(C)C=O [dimethylformamide] + CCCC[N+](CCCC)(CCCC)CCCC.[O-][Cl+3]([O-])([O-])[O-]
[1], a2 = 0
Conditions	mass density [kg/m3]
283.15 K	958.067
293.15 K	948.553
298.15 K	943.79
303.15 K	939.014
313.15 K	929.43
323.15 K	919.797
333.15 K	910.117

CN(C)C=O [dimethylformamide] + CC[N+](CC)(CC)CC.[O-][Cl+3]([O-])([O-])[O-]
[1], a2 = 0
Conditions	mass density [kg/m3]
283.15 K	958.067
293.15 K	948.553
298.15 K	943.79
303.15 K	939.014
313.15 K	929.43
323.15 K	919.797
333.15 K	910.117

CCCC[N+](CCCC)(CCCC)CCCC.[O-][Cl+3]([O-])([O-])[O-] [tetrabutylammonium perchlorate] + CN(C)C=O
mass density [kg/m3], [1]
Conditions	a1 = 0.02852	a1 = 0.05393	a1 = 0.07866	a1 = 0.1047	a1 = 0.1431	a1 = 0.1824	a1 = 0.222	a1 = 0.2619
283.15 K	959.148	960.097	961.015	961.969	963.376	964.794	966.232	967.661
293.15 K	949.672	950.653	951.604	952.588	954.042	955.511	956.99	958.466
298.15 K	944.93	945.929	946.892	947.89	949.37	950.86	952.366	953.862
303.15 K	940.173	941.191	942.17	943.187	944.69	946.204	947.732	949.254
313.15 K	930.632	931.686	932.697	933.756	935.303	936.87	938.448	940.016
323.15 K	921.05	922.138	923.191	924.277	925.877	927.496	929.126	930.747
333.15 K	911.409	912.535	913.625	914.75	916.4	918.08	919.765	921.436

CC[N+](CC)(CC)CC.[O-][Cl+3]([O-])([O-])[O-] [tetraethylammonium perchlorate] + CN(C)C=O
mass density [kg/m3], [1]
Conditions	a1 = 0.02269	a1 = 0.04218	a1 = 0.06274	a1 = 0.08215	a1 = 0.1147	a1 = 0.1455	a1 = 0.1761	a1 = 0.2062
283.15 K	959.351	960.443	961.586	962.663	964.449	966.152	967.825	969.465
293.15 K	949.863	950.975	952.142	953.234	955.047	956.775	958.473	960.139
298.15 K	945.114	946.237	947.409	948.513	950.338	952.082	953.791	955.471
303.15 K	940.349	941.482	942.667	943.781	945.623	947.378	949.101	950.793
313.15 K	930.795	931.951	933.155	934.288	936.165	937.945	939.7	941.419
323.15 K	921.19	922.369	923.599	924.748	926.661	928.473	930.257	932.007
333.15 K	911.533	912.731	913.987	915.156	917.106	918.957	920.766	922.55

CC(=O)N(C)C [N,N-dimethylethanamide]
Conditions	mass density [kg/m3]
[2]	936.357
